According to ChEMBL document CHEMBL3217570, “A class of novel AA-Trp-Trp-OBzl: synthesis, in vitro anti-proliferation, in vivo anti-tumor action, and intercalation mechanism” (Medchemcomm, 2011):
Residues, ends and D or L forms follow the SMILES beside them. *: point of attachment. OBn = c1ccc(CO*)cc1

How the values were obtained:
[1] = tested on: H22; assay: Antiproliferative activity against mouse H22 cells after 48 hrs by MTT assay; type: functional, cell-based; settings: H22, 48 h
[2] = tested on: Mus musculus; assay: Toxicity in ICR mouse assessed as changes in organs up to 500 mg/kg, ip after 7 days by necropsy analysis; type: organism-based; parameters: dose 500 mg/kg, route intraperitoneal; settings: in vivo, 168 h
[3] = tested on: Mus musculus; assay: Toxicity in mouse S180 cells allografted ICR mouse assessed as liver weight at 8.9 mg/kg, ip qd for 7 days relative to control; type: organism-based, CCRF S-180; parameters: dose 8.9 mg/kg, route intraperitoneal; settings: in vivo, 168 h
[4] = tested on: Mus musculus; assay: Neurotoxicity in ICR mouse assessed as neurotoxic behavior up to 500 mg/kg, ip after 7 days; type: toxicity, organism-based; parameters: dose 500 mg/kg, route intraperitoneal; settings: in vivo, 168 h
[5] = tested on: Mus musculus; assay: Toxicity in mouse S180 cells allografted ICR mouse assessed as increase of body weight at 8.9 mg/kg, ip qd for 7 days relative to control; type: organism-based, CCRF S-180; parameters: dose 8.9 mg/kg, route intraperitoneal; settings: in vivo, 168 h
[6] = tested on: Mus musculus; assay: Toxicity in ICR mouse assessed as mortality up to 500 mg/kg, ip after 7 days; type: organism-based; parameters: dose 500 mg/kg, route intraperitoneal; settings: in vivo, 168 h
[7] = tested on: Mus musculus; assay: Toxicity in mouse S180 cells allografted ICR mouse assessed as brain weight at 8.9 mg/kg, ip qd for 7 days relative to control; type: organism-based, CCRF S-180; parameters: dose 8.9 mg/kg, route intraperitoneal; settings: in vivo, 168 h
[8] = tested on: B16; assay: Antiproliferative activity against mouse B16 cells after 48 hrs by MTT assay; type: functional, cell-based; settings: B16, 48 h
[9] = tested on: HepG2; assay: Antiproliferative activity against human HepG2 cells after 48 hrs by MTT assay; type: functional, cell-based; settings: HepG2, 48 h
[10] = tested on: K562; assay: Antiproliferative activity against human K562 cells after 48 hrs by MTT assay; type: functional, cell-based; settings: K562, 48 h
[11] = tested on: Mus musculus; assay: Toxicity in mouse S180 cells allografted ICR mouse assessed as spleen index at 8.9 mg/kg, ip qd for 7 days relative to control; type: organism-based, CCRF S-180; parameters: dose 8.9 mg/kg, route intraperitoneal; settings: in vivo, 168 h
[12] = tested on: CCRF S-180; assay: Antitumor activity against mouse S180 cells allografted in ICR mouse assessed as tumor growth inhibition at 8.9 mg/kg, ip qd for 7 days relative to control; type: functional; settings: CCRF S-180, ip, 168 h, route intraperitoneal, read-out: TGI
[13] = tested on: CCRF S-180; assay: Antiproliferative activity against mouse S180 cells after 48 hrs by MTT assay; type: functional, cell-based; settings: CCRF S-180, 48 h
[14] = tested on: Mus musculus; assay: Toxicity in mouse S180 cells allografted ICR mouse assessed as kidney weight at 8.9 mg/kg, ip qd for 7 days relative to control; type: organism-based, CCRF S-180; parameters: dose 8.9 mg/kg, route intraperitoneal; settings: in vivo, 168 h
[15] = Acute toxicity in ip dosed ICR mouse after 7 days; type: organism-based; settings: in vivo

Structure (SMILES) | IC50 [1] [µM] | Activity [2] | Activity [3] | Activity [4] | Activity [5] | Activity [6] | Activity [7] | IC50 [8] [µM] | IC50 [9] [µM] | IC50 [10] [µM] | Activity [11] | inhibition in vivo at 8.9 mg/kg [12] [%] | IC50 [13] [µM] | Activity [14] | LD50 at 168 h [15] [mg/kg]
N[C@@H](CS)C(=O)N[C@@H](Cc1c[nH]c2ccccc12)C(=O)N[C@@H](Cc1c[nH]c2ccccc12)C(=O)OCc1ccccc1 (H-Cys-Trp-Trp-OBn) | 24.7 | Non-toxic | Non-toxic | Non-toxic | Toxic | Non-toxic | Non-toxic | 32.8 | 35 | 20.6 | Non-toxic | 48.4 | 26.2 | Non-toxic | > 500
N[C@@H](Cc1c[nH]c2ccccc12)C(=O)N[C@@H](Cc1c[nH]c2ccccc12)C(=O)N[C@@H](Cc1c[nH]c2ccccc12)C(=O)OCc1ccccc1 (H-Trp-Trp-Trp-OBn) | 106 |  | Non-toxic |  | Toxic |  | Non-toxic | 162 | 163 | 164 | Non-toxic | -19.1 | 142 | Non-toxic | 
N[C@@H](Cc1ccccc1)C(=O)N[C@@H](Cc1c[nH]c2ccccc12)C(=O)N[C@@H](Cc1c[nH]c2ccccc12)C(=O)OCc1ccccc1 (H-Phe-Trp-Trp-OBn) | 37.6 | Non-toxic | Non-toxic | Non-toxic | Toxic | Non-toxic | Non-toxic | 34 | 41.2 | 43.7 | Non-toxic | 24.7 | 34 | Non-toxic | > 500
NCC(=O)N[C@@H](Cc1c[nH]c2ccccc12)C(=O)N[C@@H](Cc1c[nH]c2ccccc12)C(=O)OCc1ccccc1 (H-Gly-Trp-Trp-OBn) | 51.1 |  | Non-toxic |  | Toxic |  | Non-toxic | 159 | 58.3 | 88.6 | Non-toxic | -6.51 | 79.9 | Non-toxic | 
C[C@@H](O)[C@H](N)C(=O)N[C@@H](Cc1c[nH]c2ccccc12)C(=O)N[C@@H](Cc1c[nH]c2ccccc12)C(=O)OCc1ccccc1 (H-Thr-Trp-Trp-OBn) | 153 |  | Non-toxic |  | Toxic |  | Non-toxic | 182 | 155 | 173 | Non-toxic | -7.66 | 155 | Non-toxic | 
N[C@@H](Cc1cnc[nH]1)C(=O)N[C@@H](Cc1c[nH]c2ccccc12)C(=O)N[C@@H](Cc1c[nH]c2ccccc12)C(=O)OCc1ccccc1 (H-His-Trp-Trp-OBn) | 95.5 |  | Non-toxic |  | Toxic |  | Non-toxic | 100 | 97.2 | 101 | Non-toxic | 11.9 | 83.3 | Non-toxic | 
N[C@@H](CO)C(=O)N[C@@H](Cc1c[nH]c2ccccc12)C(=O)N[C@@H](Cc1c[nH]c2ccccc12)C(=O)OCc1ccccc1 (H-Ser-Trp-Trp-OBn) | 25.2 | Non-toxic | Non-toxic | Non-toxic | Toxic | Non-toxic | Non-toxic | 48.4 | 25.9 | 25.6 | Non-toxic | 48.2 | 26.3 | Non-toxic | > 500
NC(=O)CC[C@H](N)C(=O)N[C@@H](Cc1c[nH]c2ccccc12)C(=O)N[C@@H](Cc1c[nH]c2ccccc12)C(=O)OCc1ccccc1 (H-Gln-Trp-Trp-OBn) | 25.1 | Non-toxic | Non-toxic | Non-toxic | Toxic | Non-toxic | Non-toxic | 31.8 | 26.2 | 24.6 | Non-toxic | 43 | 27.6 | Non-toxic | > 500
CC(C)C[C@H](N)C(=O)N[C@@H](Cc1c[nH]c2ccccc12)C(=O)N[C@@H](Cc1c[nH]c2ccccc12)C(=O)OCc1ccccc1 (H-Leu-Trp-Trp-OBn) | 36 |  | Non-toxic |  | Toxic |  | Non-toxic | 53.4 | 41.5 | 37.9 | Non-toxic | 13.8 | 36.7 | Non-toxic | 
NCCCC[C@H](N)C(=O)N[C@@H](Cc1c[nH]c2ccccc12)C(=O)N[C@@H](Cc1c[nH]c2ccccc12)C(=O)OCc1ccccc1 (H-Lys-Trp-Trp-OBn) | 33 |  | Non-toxic |  | Toxic |  | Non-toxic | 57.4 | 25.9 | 34.5 | Non-toxic | 15 | 33 | Non-toxic | 
O=C(N[C@@H](Cc1c[nH]c2ccccc12)C(=O)N[C@@H](Cc1c[nH]c2ccccc12)C(=O)OCc1ccccc1)[C@@H]1CCCN1 (H-Pro-Trp-Trp-OBn) | 91.5 |  | Non-toxic |  | Toxic |  | Non-toxic | 94 | 91.7 | 91.8 | Non-toxic | 12.5 | 76 | Non-toxic | 
N[C@@H](CC(=O)O)C(=O)N[C@@H](Cc1c[nH]c2ccccc12)C(=O)N[C@@H](Cc1c[nH]c2ccccc12)C(=O)OCc1ccccc1 (H-Asp-Trp-Trp-OBn) | 107 |  | Non-toxic |  | Toxic |  | Non-toxic | 157 | 122 | 170 | Non-toxic | -8.85 | 164 | Non-toxic | 
C[C@H](N)C(=O)N[C@@H](Cc1c[nH]c2ccccc12)C(=O)N[C@@H](Cc1c[nH]c2ccccc12)C(=O)OCc1ccccc1 (H-Ala-Trp-Trp-OBn) | 84.9 |  | Non-toxic |  | Toxic |  | Non-toxic | 132 | 49.9 | 116 | Non-toxic | -11.4 | 72.7 | Non-toxic | 
